Measurements reported in article PMC10066365, “Nemacol is a small molecule inhibitor of C. elegans vesicular acetylcholine transporter with anthelmintic potential” (Nature Communications, 2023).
Values joined by “and” are separate entries in the source; they are usually repeats but may differ in a detail not shown here. Equal values may be shown once. Read-outs that look alike come from different tables or passages of the source.

How the values were obtained:
C. elegans = test: Suppression of trichlorfon (AChE inhibitor) paralysis, double dose-response, scored after 80 min; assay type: in vivo, Caenorhabditis elegans; details: wild-type, bio rep 1-3
[1] = test system: Dirofilaria immitis L3/L4; test: Dirofilaria immitis L3/L4 motility assay (DiroImager, 72 h)
[2] = test system: C. elegans unc-17 mutants; details: 60 min
Method: Significance was calculated using Fisher’s method (one-sided comparisons; see 'Methods'). […] Worms were incubated on the plates for 60 min.
Locomotor phenotype analyses were done in 24-well plates with 1 mL of MYOB substrate (27.5 g Trizma HCl, 12 g Trizma Base, 230 g bacto tryptone, 10 g NaCl, 0.4 g cholesterol (95%)) seeded with 25 µL of OP50 Escherichia coli on each well. Each compound was added to the MYOB substrate before pouring to achieve the desired final concentrations of 30 µM or 60 µM after diffusion through the media. Synchronized young adult worms are transferred into each well using a platinum wire pick. A Leica MZ75 stereomicroscope was used to visualize the movement of worms on the solid substrate. The specific dominant locomotor phenotype (i.e. ‘Punc’, ‘paralyzed’, ‘coiler’ or ‘wild-type locomotion’) was scored after the touch on the head with a platinum wire over a ~3–5 s of observation. […] Coiled animals were not scored as paralyzed despite sometimes not responding to light touch.

[3] = unc-17 (e245), 15 µM, adult worms, average of 3 biological repeats
[4] = unc-17 (e245), 30 µM, adult worms, average of 3 biological repeats
[5] = unc-17 (e245), 60 µM, adult worms, average of 3 biological repeats
[6] = unc-17 (e245), 15 µM, single Bio Rep
[7] = unc-17 (e245), 30 µM, single Bio Rep
[8] = unc-17 (e245), 60 µM, single Bio Rep
[9] = unc-17 (e327), 15 µM, single Bio Rep

## O=[N+]([O-])c1ccc(N2CCN(CC3CCCCC3)CC2)cc1 [Nemacol-1]
C. elegans; Nemacol-1 3.75 uM + trichlorfon 0 uM
  % para (percentage of animals able to adopt a clear sinusoidal wave pattern upon touch on the nose): 100%
C. elegans; Nemacol-1 3.75 uM + trichlorfon 25 uM
  % para (percentage of animals able to adopt a clear sinusoidal wave pattern upon touch on the nose): 96.4286% and 92.8571% and 100%
C. elegans; Nemacol-1 3.75 uM + trichlorfon 50 uM
  % para (percentage of animals able to adopt a clear sinusoidal wave pattern upon touch on the nose): 96.4286% and 85.7143% and 75%
C. elegans; Nemacol-1 3.75 uM + trichlorfon 100 uM
  % para (percentage of animals able to adopt a clear sinusoidal wave pattern upon touch on the nose): 28.5714% and 32.1429% and 39.2857%
C. elegans; Nemacol-1 3.75 uM + trichlorfon 200 uM
  % para (percentage of animals able to adopt a clear sinusoidal wave pattern upon touch on the nose): 10.7143% and 7.143%
C. elegans; Nemacol-1 3.75 uM + trichlorfon 400 uM
  % para (percentage of animals able to adopt a clear sinusoidal wave pattern upon touch on the nose): 3.571% and 0%
C. elegans; Nemacol-1 3.75 uM + trichlorfon 800 uM
  % para (percentage of animals able to adopt a clear sinusoidal wave pattern upon touch on the nose): 0%
C. elegans; Nemacol-1 15 uM + trichlorfon 0 uM
  % para (percentage of animals able to adopt a clear sinusoidal wave pattern upon touch on the nose): 96.4286% and 100%
C. elegans; Nemacol-1 15 uM + trichlorfon 25 uM
  % para (percentage of animals able to adopt a clear sinusoidal wave pattern upon touch on the nose): 100%
C. elegans; Nemacol-1 15 uM + trichlorfon 50 uM
  % para (percentage of animals able to adopt a clear sinusoidal wave pattern upon touch on the nose): 92.8571% and 46.4286% and 64.2857%
C. elegans; Nemacol-1 15 uM + trichlorfon 100 uM
  % para (percentage of animals able to adopt a clear sinusoidal wave pattern upon touch on the nose): 82.1429% and 53.5714% and 71.4286%
C. elegans; Nemacol-1 15 uM + trichlorfon 400 uM
  % para (percentage of animals able to adopt a clear sinusoidal wave pattern upon touch on the nose): 14.2857% and 7.143%
C. elegans; Nemacol-1 15 uM + trichlorfon 800 uM
  % para (percentage of animals able to adopt a clear sinusoidal wave pattern upon touch on the nose): 0% and 3.571%
C. elegans; Nemacol-1 30 uM + trichlorfon 0 uM
  % para (percentage of animals able to adopt a clear sinusoidal wave pattern upon touch on the nose): 100%
C. elegans; Nemacol-1 30 uM + trichlorfon 25 uM
  % para (percentage of animals able to adopt a clear sinusoidal wave pattern upon touch on the nose): 100%
C. elegans; Nemacol-1 30 uM + trichlorfon 50 uM
  % para (percentage of animals able to adopt a clear sinusoidal wave pattern upon touch on the nose): 85.7143% and 89.2857% and 92.8571%
C. elegans; Nemacol-1 30 uM + trichlorfon 100 uM
  % para (percentage of animals able to adopt a clear sinusoidal wave pattern upon touch on the nose): 78.5714% and 82.1429%
C. elegans; Nemacol-1 30 uM + trichlorfon 200 uM
  % para (percentage of animals able to adopt a clear sinusoidal wave pattern upon touch on the nose): 53.5714% and 32.1429% and 39.2857%
C. elegans; Nemacol-1 30 uM + trichlorfon 800 uM
  % para (percentage of animals able to adopt a clear sinusoidal wave pattern upon touch on the nose): 3.571%
C. elegans; Nemacol-1 60 uM + trichlorfon 0 uM
  % para (percentage of animals able to adopt a clear sinusoidal wave pattern upon touch on the nose): 50% and 82.1429% and 71.4286%
C. elegans; Nemacol-1 60 uM + trichlorfon 25 uM
  % para (percentage of animals able to adopt a clear sinusoidal wave pattern upon touch on the nose): 85.7143% and 75% and 78.5714%
C. elegans; Nemacol-1 60 uM + trichlorfon 50 uM
  % para (percentage of animals able to adopt a clear sinusoidal wave pattern upon touch on the nose): 78.5714% and 57.1429% and 67.8571%
C. elegans; Nemacol-1 60 uM + trichlorfon 100 uM
  % para (percentage of animals able to adopt a clear sinusoidal wave pattern upon touch on the nose): 53.5714% and 67.8571%
C. elegans; Nemacol-1 60 uM + trichlorfon 200 uM
  % para (percentage of animals able to adopt a clear sinusoidal wave pattern upon touch on the nose): 35.7143% and 57.1429% and 50%
C. elegans; Nemacol-1 60 uM + trichlorfon 800 uM
  % para (percentage of animals able to adopt a clear sinusoidal wave pattern upon touch on the nose): 3.571% and 7.143%
C. elegans; Nemacol-1 […] + trichlorfon 25 uM
  % para (percentage of animals able to adopt a clear sinusoidal wave pattern upon touch on the nose): 100%
C. elegans; Nemacol-1 […] + trichlorfon 800 uM
  % para (percentage of animals able to adopt a clear sinusoidal wave pattern upon touch on the nose): 0%
[1]
  activity against D. immitis (EC50): low micromolar activity
[1]; 0.016 µM
  % effect (motility), DIROIM L4: 0%
[1]; 0.08 µM
  % effect (motility), DIROIM L4: 0%
[1]; 0.4 µM
  % effect (motility), DIROIM L4: 0%
[1]; 2 µM
  % effect (motility), DIROIM L4: 5%
[1]; 10 µM
  % effect (motility), DIROIM L4: 100%
[1]; 50 µM
  % effect (motility), DIROIM L4: 100%
[2]; [3]
  Fraction Coiled: 0.83
  Fraction Jerky-Unc: 0.17
  Fraction No Phenotype: 0.00
  Fraction Parayzed: 0.00
[2]; [4]
  Fraction Coiled: 0.78
  Fraction Jerky-Unc: 0.13
  Fraction No Phenotype: 0.00
  Fraction Parayzed: 0.09
[2]; [5]
  Fraction Coiled: 0.80
  Fraction Jerky-Unc: 0.0556
  Fraction No Phenotype: 0.00
  Fraction Parayzed: 0.15
[2]; unc-17 (e245), 15 µM
  Fraction Coiled, Averages of 3 biological repeats: 0.78
  Fraction Jerky-Unc, Averages of 3 biological repeats: 0.19
  Fraction No Phenotype, Averages of 3 biological repeats: 0.00
  Fraction Parayzed, Averages of 3 biological repeats: 0.037
[2]; [6]
  C1 (loose coil) worm count: 4 and 2 and 3
  C2 (tight coil) worm count: 11 and 12 and 10
  Fraction Coiled: 0.72 and 0.83 and 0.78
  Fraction Jerky-Unc: 0.1667 and 0.2222
  Fraction No Phenotype: 0.00
  J (jerky-unc) worm count: 3 and 4
  NP (no phene) worm count: 0
[2]; unc-17 (e245), 30 µM
  Fraction Coiled, Averages of 3 biological repeats: 0.87
  Fraction Jerky-Unc, Averages of 3 biological repeats: 0.0741
  Fraction No Phenotype, Averages of 3 biological repeats: 0.00
  Fraction Parayzed, Averages of 3 biological repeats: 0.0556
[2]; [7]
  C1 (loose coil) worm count: 2 and 1
  C2 (tight coil) worm count: 14 and 15 and 13
  Fraction Coiled: 0.83 and 0.89
  Fraction No Phenotype: 0.00
  NP (no phene) worm count: 0
[2]; unc-17 (e245), 60 µM
  Fraction Coiled, Averages of 3 biological repeats: 0.76
  Fraction Jerky-Unc, Averages of 3 biological repeats: 0.037
  Fraction No Phenotype, Averages of 3 biological repeats: 0.00
  Fraction Parayzed, Averages of 3 biological repeats: 0.20
[2]; [8]
  C1 (loose coil) worm count: 4 and 2
  C2 (tight coil) worm count: 12 and 8 and 11
  Fraction Coiled: 0.83 and 0.89 and 0.56
  Fraction No Phenotype: 0.00
  NP (no phene) worm count: 0
[2]; unc-17 (e327), 15 µM
  Fraction Coiled, Averages of 3 biological repeats: 0.77
  Fraction Jerky-Unc, Averages of 3 biological repeats: 0.15
  Fraction No Phenotype, Averages of 3 biological repeats: 0.00
  Fraction Parayzed, Averages of 3 biological repeats: 0.08
[2]; [9]
  C1 (loose coil) worm count: 3 and 4
  C2 (tight coil) worm count: 10 and 12 and 8
  Fraction Coiled: 0.75 and 0.72 and 0.83
  Fraction Jerky-Unc: 0.125 and 0.1667
  Fraction No Phenotype: 0.00
  J (jerky-unc) worm count: 3 and 2
  NP (no phene) worm count: 0
[2]; unc-17 (e327), 30 µM
  Fraction Coiled, Averages of 3 biological repeats: 0.66
  Fraction Jerky-Unc, Averages of 3 biological repeats: 0.12
  Fraction No Phenotype, Averages of 3 biological repeats: 0.00
